Assay results reported in patent publication US12071411B2, “Inhibitors of HIF-2α and methods of use thereof” (ARCUS BIOSCIENCES, INC., priority 2021, dated 2024).

Biological target: HIF-2α (Homo sapiens, UniProt Q99814)
Test: HIF-2α Luciferase Reporter Assay (serum free) in HIF-Luc-786-0 cells
Format: cell-based
Conditions: Opti-MEM, 786-0 reporter cells, 20 hours incubation
Description: Generation of HIF-2α Luciferase 786-0 Cell Line:
Stable cell lines were generated by transducing 786-0 cells (ATCC, CRL-1932) with Cignal Lenti HIF Luc Reporter lentivirus (CLS-007L, Qiagen) according to the manufacturer's guidelines. In brief, 0.3×10^6 786-0 cells were transduced with lentivirus at a multiplicity of infection (MOI) of 25 for 24 hours. After transduction, cells were replenished with fresh RPMI 1640 Medium (Cat. No. 11875085, Thermo Fisher) supplemented with 10% FBS (Cat. No. A3160502, Gibco), 2 mM GlutaMAX™ (Cat. No. 35050-061, Invitrogen) and 100 units of penicillin and 100 μg of streptomycin/mL (Cat. No 15070063, Thermo Fisher) for another 24 hours. Antibiotic selection was performed in cell media containing 4 μg/mL of puromycin. After 7 days of antibiotic selection, stable pools of surviving cells were expanded and used in a luciferase reporter assay.
HIF-2α Luciferase Reporter Assay (Serum Free):
On day one, 20 uL of HIF-Luc-786-0 cells in Opti-MEM™ (Cat. No. 31985088, Thermo Fisher) were seeded into each well of a 384 well white opaque plate (Corning 3570) and incubated at 37° C. and 5% CO2. Twenty microliters of 2× test compounds in Opti-MEM™ were added to cells after 4 hours of incubation. Final assay conditions comprised 20,000 cells per well in 1% DMSO with test compound concentrations ranging from 50 uM to 0 uM. After 20 hours incubation at 37° C. and 5% CO2, luciferase activity was determined using ONE-Glo™ Luciferase Assay Reagent (E6110, Promega) following the manufacture's recommended procedure. Briefly, 40 uL of ONE-Glo™ luciferase reagents were added to each well and luciferase signals were measured using an Envision 2102 Multilabel Reader. Percentage maximum activity in each test well was calculated based on DMSO (maximum activity) and no cell control wells (baseline activity). The IC50 values of the test compounds were determined from compound dose response curves fitted using a standard four parameter fit equation.

HIF-2α, sequence (Q99814 whole entry): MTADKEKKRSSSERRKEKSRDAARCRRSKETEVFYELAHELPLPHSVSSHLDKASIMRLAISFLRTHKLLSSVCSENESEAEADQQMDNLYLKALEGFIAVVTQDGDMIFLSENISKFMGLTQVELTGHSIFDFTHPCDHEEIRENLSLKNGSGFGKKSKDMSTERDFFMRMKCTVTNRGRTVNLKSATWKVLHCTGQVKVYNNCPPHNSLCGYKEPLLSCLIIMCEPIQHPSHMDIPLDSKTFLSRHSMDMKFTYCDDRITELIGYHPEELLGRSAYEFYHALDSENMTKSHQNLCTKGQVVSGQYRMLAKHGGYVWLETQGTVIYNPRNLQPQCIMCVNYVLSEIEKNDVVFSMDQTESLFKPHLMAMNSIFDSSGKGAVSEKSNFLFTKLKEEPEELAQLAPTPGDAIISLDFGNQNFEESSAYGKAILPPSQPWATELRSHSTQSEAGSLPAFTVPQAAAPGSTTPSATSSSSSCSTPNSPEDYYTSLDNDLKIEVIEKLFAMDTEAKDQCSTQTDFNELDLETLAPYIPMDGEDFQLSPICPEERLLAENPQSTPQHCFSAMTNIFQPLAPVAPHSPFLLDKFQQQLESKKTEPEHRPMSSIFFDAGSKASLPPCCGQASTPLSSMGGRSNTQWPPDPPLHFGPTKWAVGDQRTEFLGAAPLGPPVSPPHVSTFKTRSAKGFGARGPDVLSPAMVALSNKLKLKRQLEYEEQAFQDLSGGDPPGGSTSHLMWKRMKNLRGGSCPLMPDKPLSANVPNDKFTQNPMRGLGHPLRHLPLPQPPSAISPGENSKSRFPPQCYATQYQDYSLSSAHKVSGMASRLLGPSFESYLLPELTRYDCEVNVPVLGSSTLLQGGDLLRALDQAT

Row | IC50 [nM] | SMILES
1 | > 1000 | CO[C@H]1CCCC[C@H]1n1nc(C(F)(F)F)c2c1CC(F)(F)[C@H]2O (racemic) [Example 69, (4S)-5,5-difluoro-1-[(1R,2S)-2-methoxycyclohexyl]-3-(trifluoromethyl)-4,6-dihydrocyclopenta[c]pyrazol-4-ol and (4S)-5,5-difluoro-1-[(1S,2R)-2-methoxycyclohexyl]-3-(trifluoromethyl)-4,6-dihydrocyclopenta[c]pyrazol-4-ol]
2 | < 100 | CO[C@H](CCn1nc(S(C)(=O)=O)c2c1CC(F)(F)[C@H]2O)C(F)(F)F (racemic) [Example 107, (4S)-5,5-difluoro-3-methylsulfonyl-1-[(3R)-4,4,4-trifluoro-3-methoxybutyl]-4,6-dihydrocyclopenta[c]pyrazol-4-ol and (4S)-5,5-difluoro-3-methylsulfonyl-1-[(3S)-4,4,4-trifluoro-3-methoxybutyl]-4,6-dihydrocyclopenta[c]pyrazol-4-ol]
3 | > 1000 | O[C@H]1c2c(C(F)(F)F)nn(C[C@@H](F)C3CC3)c2CCC1(F)F (single isomer, unassigned) [26/27 DIAST-1]
4 | < 100 | O[C@H]1c2c(C(F)(F)F)nn([C@@H]3CCO[C@@H](C(F)(F)F)C3)c2CC1(F)F (single isomer, unassigned) [92/93 DIAST-1]
5 | < 100 | O[C@H]1c2c(C(F)(F)F)nn([C@H]3CC[C@H](F)C[C@@H]3F)c2CC1(F)F (single isomer, unassigned) [97/98 DIAST-2]
6 | > 1000 | O[C@H]1c2c(C(F)(F)F)nn([C@@H]3CCO[C@H](C(F)(F)F)C3)c2[C@@H](F)[C@H]1F (single isomer, unassigned) [150/151 DIAST-2]
7 | > 1000 | O[C@H]1c2c(C(F)(F)F)nn([C@H]3CC[C@H](F)[C@H](F)C3)c2[C@H](F)C1(F)F (single isomer, unassigned) [Example 155]
8 | > 1000 | O[C@H]1c2c(C(F)(F)F)nn(Cc3cc(C(F)(F)F)no3)c2CCC1(F)F [Example 4, (4S)-5,5-difluoro-3-(trifluoromethyl)-1-[[3-(trifluoromethyl)-1,2-oxazol-5-yl]methyl]-6,7-dihydro-4H-indazol-4-ol]
9 | > 1000 | COCC(C)CCn1nc(C(F)(F)F)c2c1CCC(F)(F)[C@H]2O (stereo partly drawn) [Example 6, (4S)-5,5-difluoro-1-(4-methoxy-3-methylbutyl)-3-(trifluoromethyl)-6,7-dihydro-4H-indazol-4-ol]
10 | > 1000 | C[C@]1(OC(F)F)C[C@@H](Cn2nc(C(F)(F)F)c3c2CCC(F)(F)[C@H]3O)C1 [Example 19, (4S)-1-[[3-(difluoromethoxy)-3-methylcyclobutyl]methyl]-5,5-difluoro-3-(trifluoromethyl)-6,7-dihydro-4H-indazol-4-ol]
11 | > 1000 | O[C@H]1c2c(C(F)(F)F)nn(CC(F)(F)C3CC3)c2CCC1(F)F [Example 28, (4S)-1-(2-cyclopropyl-2,2-difluoroethyl)-5,5-difluoro-3-(trifluoromethyl)-4,5,6,7-tetrahydro-1H-indazol-4-ol]
12 | > 1000 | CCC(F)(F)Cn1nc(C(F)(F)F)c2c1CCC(F)(F)[C@H]2O [Example 29, (4S)-1-(2,2-difluorobutyl)-5,5-difluoro-3-(trifluoromethyl)-6,7-dihydro-4H-indazol-4-ol]
13 | > 1000 | O[C@H]1c2c(C(F)(F)F)nn(CCC3CCCO3)c2CCC1(F)F (stereo partly drawn) [Example 34, (4S)-5,5-difluoro-1-[2-(oxolan-2-yl)ethyl]-3-(trifluoromethyl)-6,7-dihydro-4H-indazol-4-ol]
14 | > 1000 | O[C@H]1c2c(C(F)(F)F)nn(C3CCCCC3)c2CCC1(F)F [Example 35, (4S)-1-cyclohexyl-5,5-difluoro-3-(trifluoromethyl)-6,7-dihydro-4H-indazol-4-ol]
15 | > 1000 | F[C@H]1c2c(C(F)(F)F)nn(CCCC(F)(F)F)c2CCC1(F)F [Example 48, (4S)-4,5,5-trifluoro-1-(4,4,4-trifluorobutyl)-3-(trifluoromethyl)-6,7-dihydro-4H-indazole]
